Earlier results as cited in patent publication US20040235935A1, “Oral pharmaceutical composition containing a statin derivative” (priority 2001, published 2004).
Values after ≈ are worked out from the molar mass of the structure shown. Where two headings read alike, the source gives them in different places.

How the values were obtained:
[1] = for Vsol = volume of water required to completely dissolve a 20 mg dose: solubility at pH 5
[2] = not given; remark: listed apart in the source
[3] = not given; remark: listed apart in the source
[4] = healthy humans, oral dose 20 mg
[5] = healthy humans, oral dose 40 mg

| pKa | AUC = area under plasma concentration-time curve [2, 4] [µg·h/mL] | Cmax = maximum plasma drug concentration [2, 4] [µg/mL] | Vsol = volume of water required to completely dissolve a 20 mg dose [1] | Solubility in water ([1]; at pH 5) [mg/mL] | Structure (SMILES) | also measured |
| --- | --- | --- | --- | --- | --- | --- |
| 5.5 | 0.167 | 0.181 | – | – | CC(C)n1c(/C=C/C(O)CC(O)CC(=O)O)c(-c2ccc(F)cc2)c2ccccc21 (stereo not drawn) [Fluvastatin, fluvastatin] | Solubility in water ([1]; at pH 6): 2 mg/mL (≈ 4860 µM); Peff = effective membrane permeability ([2]; healthy humans): 2400 nm/s; F = bioavailability ([2]; healthy humans, oral): 10-35% |
| 5.5 | – | – | – | – | CCC(C)C(=O)OC1CC(C)C=C2C=CC(C)C(CCC(O)CC(O)CC(=O)[O-])C21.[Na+] (stereo not drawn) [Lovastatin Hydroxy acid] | tmax = time to Cmax ([2]; human, in vivo, po, 20 mg): 2.8 h; fa = fraction of the administered dose absorbed ([2]; in vivo): ˜31% |
| – | – | – | 15 385 ml | 0.0013 (≈ 3.21 µM) | CC[C@H](C)C(=O)O[C@H]1C[C@@H](C)C=C2C=C[C@H](C)[C@H](CC[C@@H]3C[C@@H](O)CC(=O)O3)[C@H]21 [Lovastatin Lactone, lovastatin] | D = partition coefficient (logarithm of partition ratio between octanol and water at pH 7) ([3]; pH 7): 4.3 |
| 5.5 | 0.0902 | 0.0384 | – | 300 (≈ 707000 µM) | CC[C@H](C)C(=O)O[C@H]1C[C@H](O)C=C2C=C[C@H](C)[C@H](CC[C@@H](O)C[C@@H](O)CC(=O)O)[C@H]21 [Pravastatin Hydroxy acid, pravastatin] | EH = liver extraction ratio ([2]; healthy humans): 45%; fa = fraction of the administered dose absorbed ([2]; healthy humans): ˜34% |
| – | – | – | 111 mL | 0.18 (≈ 443 µM) | CC[C@H](C)C(=O)O[C@H]1C[C@H](O)C=C2C=C[C@H](C)[C@H](CC[C@@H]3C[C@@H](O)CC(=O)O3)[C@H]21 [Pravastatin Lactone] | – |
| 5.5 | – | – | – | – | CCC(C)(C)C(=O)O[C@H]1C[C@@H](C)C=C2C=C[C@H](C)[C@H](CC[C@@H](O)C[C@@H](O)CC(=O)O)[C@H]21 [Simvastatin Hydroxy acid] | times more readily dissolved in octanol than in water ([3]; from the partition coefficients at pH 7): 126 times; AUC = area under plasma concentration-time curve [2, 5]: 0.0581 µg·h/mL; Cmax = maximum plasma drug concentration [2, 5]: 0.0581 µg/mL |
